1 compound from publication PMC5601737, “Potential independent action of sigma receptor ligands through inhibition of the Kv2.1 channel” (Oncotarget, 2017) can be followed below.

For the test, the target named is T1, Kv2.1 (Rattus norvegicus, UniProt P15387).
T1 construct: gene Kcnb1
T1 sequence (P15387 1-857): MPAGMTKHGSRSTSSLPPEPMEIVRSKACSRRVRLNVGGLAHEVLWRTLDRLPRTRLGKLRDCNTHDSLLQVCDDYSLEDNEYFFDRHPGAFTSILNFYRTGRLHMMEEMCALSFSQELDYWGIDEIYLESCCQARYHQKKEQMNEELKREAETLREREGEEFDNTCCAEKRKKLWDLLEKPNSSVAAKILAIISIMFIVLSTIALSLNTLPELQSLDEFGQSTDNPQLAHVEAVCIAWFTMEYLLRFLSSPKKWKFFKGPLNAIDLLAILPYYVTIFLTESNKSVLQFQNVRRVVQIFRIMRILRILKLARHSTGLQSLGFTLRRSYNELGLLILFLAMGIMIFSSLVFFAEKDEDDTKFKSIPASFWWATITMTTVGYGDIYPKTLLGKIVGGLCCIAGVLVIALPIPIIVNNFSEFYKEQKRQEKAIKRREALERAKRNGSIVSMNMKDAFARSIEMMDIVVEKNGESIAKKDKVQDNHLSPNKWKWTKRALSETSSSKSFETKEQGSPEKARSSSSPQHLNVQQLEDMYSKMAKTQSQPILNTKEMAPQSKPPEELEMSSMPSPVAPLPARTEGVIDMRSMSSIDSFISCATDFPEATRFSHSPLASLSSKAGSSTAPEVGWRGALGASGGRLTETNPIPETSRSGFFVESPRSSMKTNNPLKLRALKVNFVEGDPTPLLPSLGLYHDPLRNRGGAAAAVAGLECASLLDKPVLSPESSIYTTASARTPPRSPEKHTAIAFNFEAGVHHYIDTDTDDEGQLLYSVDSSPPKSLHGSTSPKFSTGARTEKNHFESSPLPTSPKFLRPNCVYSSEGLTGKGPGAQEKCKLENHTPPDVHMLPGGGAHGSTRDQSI
Kind of test: whole-cell patch clamp, HEK293 stably expressing Kv2.[…], sigma-1 receptor knockout; […] inhibition at […]. The test is classed as cell-based.

Each structure is given as a SMILES string.

`COc1cccc2c1CCCC2CCCN1CCN(C2CCCCC2)CC1` (stereo not shown) [PB28] returned an inhibition at 10 µM of 65%.
